# Assay results as given in patent publication US4500525A, “Pharmacologically active pyrazolo/4,3-c/pyridines” (Gruppo Lepetit S.p.A., priority 1982, dated 1985).
# Counter-ions that a name gives are not always drawn.
# Target: α1 adrenoceptor
# Assay: displacement of ^3 H-prazosin specifically bound in rat brain homogenate (radioligand binding)
# Details: ^3 H Prazosin binding, Ki calculated from IC50, read-out: K1 (nM) ^3 H Prazosin
# Procedure: The compounds of the invention were tested […] for their ability to compete with labelled ligands of α1, α2 -adrenergic,and dopaminergic receptors. Said tests were made essentially following:
# (b) the method described by P. Greengrass et al., European Journal of Pharmacology, Vol. 55, pp. 323-326, (1979), which uses the specific displacement of ^3 H-prazosin specifically bound in rat brain homogenate, for the identification of substances interacting with the so called "α1 "adrenoceptor;
# The above mentioned methods are radioligand binding assays and are based on the knowledge that many natural or synthetic physiologically active substances such as neurotransmitters, hormones, and others, specifically link to cellular receptors, generally of proteic nature. They are generally obtained from a tissue or organ of a suitable test-animal after isolation and homogenization of said tissue or organ.
# The homogenate is twice centrifugated to separate and partially purify the receptorial fraction (synaptosomes).
# The labelled substances employed are known to specifically bind their receptors, so the drug-receptor dissociation constants obtained for each test compound under standard conditions are a measure of their actual binding affinities. The validation of the above methods in predicting a possible pharmacological activity was carried out comparing the in vitro binding constants of a number of […] agonist or antagonist of the adrenergic or dopaminergic system with their in vivo activities. The α1 -adrenergic activity is essentially correlated with a peripheral vasodilatation. The α2 -adrenergic activity is essentially correlated with a hypotensive action of central origin, and the dopaminergic activity is correlated with a neuroleptic action. IC50 values, defined as the drug concentration that cause 50% inhibition of the specific ^3 H ligant binding, are observed by incubating from 5 to 7 different dilutions of the tested compound in duplicate or triplicate. Ki, inhibition constant, values are calculated from the following formula: [formula] wherein IC50 is defined as above, C is the concentration of the ^3 H ligand, and KD is the dissociation constant of the ^3 H ligand-receptor complex.
row,Ki [nM],Structure (SMILES)
1,69.2,"Fc1ccc(-c2n[nH]c3c2CNCC3)cc1 [Example 19, 3-(4-fluorophenyl)-4,5,6,7-tetrahydro-1H-pyrazolo/4,3-c/pyridine]"
2,92.2,"Cc1ccc(-c2n[nH]c3c2CNCC3)cc1 [Example 32, 3-(4-methylphenyl)-4,5,6,7-tetrahydro-1H-pyrazolo/4,3-c/pyridine, dihydrochloride]"
3,32.2,"CC(C)n1nc(-c2ccc(F)cc2)c2c1CCNC2 [Example 95, 3-(4-fluorophenyl)-1-(2-methylethyl)-4,5,6,7-tetrahydro-1H-pyrazolo/4,3-c/pyridine, methanesulfonate]"
4,52,"Cn1nc(-c2ccccc2)c2c1CCNC2 [Example 96, 1-methyl-3-phenyl-4,5,6,7-tetrahydro-1H-pyrazolo/4,3-c/pyridine, methanesu lfonate]"
5,11.1,"Fc1ccc(-c2nn(Cc3ccc(Cl)cc3)c3c2CNCC3)cc1 [Example 103, 1-(4-chlorophenylmethyl)-3-(4-fluorophenyl)-4,5,6,7-tetrahydro-1H-pyrazolo/4,3-c/pyridine, hydrochloride]"
6,6.23,"COc1ccc(Cn2nc(-c3ccc(F)cc3)c3c2CCNC3)cc1 [Example 105, 3-(4-fluorophenyl)-1-(4-methoxyphenylmethyl)-4,5,6,7-tetrahydro-1H-pyrazolo/4,3-c/pyridine, hydrochloride]"
7,7.48,"Fc1ccc(-c2nn(Cc3ccc(Cl)c(Cl)c3)c3c2CNCC3)cc1 [Example 108, 1-(3,4-dichlorophenylmethyl)-3-(4-fluorophenyl)-4,5,6,7-tetrahydro-1H-pyrazolo/4,3-c/pyridine, hydrochloride]"
8,40.3,"Fc1ccc(-c2nn(CCc3ccccc3)c3c2CNCC3)cc1 [Example 110, 3-(4-fluorophenyl)-1-(2-phenylethyl)-4,5,6,7-tetrahydro-1H-pyrazolo/4,3-c/pyridine, methanesulfonate]"
9,12.9,"Fc1ccc(-c2nn(CCCc3ccccc3)c3c2CNCC3)cc1 [Example 111, 3-(4-fluorophenyl)-1-(3-phenylpropyl)-4,5,6,7-tetrahydro-1H-pyrazolo/4,3-c/pyridine, methanesulfonate]"
10,24.2,"CCCn1nc(-c2ccc(F)cc2)c2c1CCNC2 [Example 112, 3-(4-fluorophenyl)-1-n.propyl-4,5,6,7-tetrahydro-1H-pyrazolo/4,3-c/pyridine, methanesulfonate]"
11,17.3,"CCCCn1nc(-c2ccc(F)cc2)c2c1CCNC2 [Example 113, 3-(4-fluorophenyl)-1-n.butyl-4,5,6,7-tetrahydro-1H-pyrazolo/4,3-c/pyridine, methanesulfonate]"
12,17.3,"Fc1ccc(-c2nn(Cc3ccccc3Cl)c3c2CNCC3)cc1 [Example 114, 1-(2-chlorophenylmethyl)-3-(4-fluorophenyl)-4,5,6,7-tetrahydro-1H-pyrazolo/4,3-c/pyridine, methanesulfonate]"
13,7.24,"CC(c1ccccc1)n1nc(-c2ccc(F)cc2)c2c1CCNC2 (centres unmarked) [Example 116, 3-(4-fluorophenyl)-4,5,6,7-tetrahydro-1-(1-phenylethyl)-1H-pyrazolo/4,3-c/pyridine, methanesulfonate]"
14,38.6,"c1ccc(Cn2nc(-c3ccccc3)c3c2CCNC3)cc1 [Example 117, 4,5,6,7-tetrahydro-3-phenyl-1-phenylmethyl-1H-pyrazolo/4,3-c/pyridine, hydrochloride]"
15,14.5,"Clc1ccc(-c2nn(Cc3ccccc3)c3c2CNCC3)cc1 [Example 118, 3-(4-chlorophenyl)-4,5,6,7-tetrahydro-1-phenylmethyl)-1H-pyrazolo/4,3-c/pyridine, hydrochloride]"
16,5.86,"Cc1ccc(-c2nn(Cc3ccccc3)c3c2CNCC3)cc1 [Example 119, 4,5,6,7-tetrahydro-3-(4-methylphenyl)-1-phenylmethyl-1H-pyrazolo/4,3-c/pyridine, hydrochloride]"
17,8.7,"CCCCCn1nc(-c2ccc(F)cc2)c2c1CCNC2 [Example 122, 3-(4-fluorophenyl)-4,5,6,7-tetrahydro-1-n.pentyl-1H-pyrazolo/4,3-c/pyridine, methanesulfonate]"
18,13,"CCCCCCn1nc(-c2ccc(F)cc2)c2c1CCNC2 [Example 123, 3-(4-fluorophenyl)-4,5,6,7-tetrahydro-1-n.hexyl-1H-pyrazolo/4,3-c/pyridine, methanesulfonate]"

row,Ki [nM],Structure (SMILES)
1,21.2,"CN1CCc2c(c(-c3ccc(F)cc3)nn2Cc2ccccc2)C1 [Example 128, 3-(4-fluorophenyl)-5-methyl-1-phenylmethyl-4,5,6,7-tetrahydro-1H-pyrazolo/4,3-c/pyridine, methanesulfonate]"
2,20.8,"CN1CCc2c(c(-c3ccc(F)cc3)nn2Cc2ccc(Cl)cc2)C1 [Example 132, 1-(4-chlorophenylmethyl)-3-(4-fluorophenyl)-5-methyl-4,5,6,7-tetrahydro-1H-pyrazolo/4,3-c/pyridine, methanesulfonate]"
3,12.4,"COc1ccc(Cn2nc(-c3ccc(F)cc3)c3c2CCN(C)C3)cc1 [Example 133, 3-(4-fluorophenyl)-1-(4-methoxyphenylmethyl)-5-methyl-4,5,6,7-tetrahydro-1H-pyrazolo/4,3-c/pyridine, hydrochloride]"
4,21.9,"CN1CCc2c(c(-c3ccc(F)cc3)nn2Cc2ccc(Cl)c(Cl)c2)C1 [Example 136, 1-(3,4-dichlorophenylmethyl)-3-(4-fluorophenyl)-5-methyl-4,5,6,7-tetrahydro-1H-pyrazolo/4,3-c/pyridine]"
5,40.3,"CN1CCc2c(c(-c3ccc(F)cc3)nn2CCc2ccccc2)C1 [Example 138, 3-(4-fluorophenyl)-1-(2-phenylethyl)-5-methyl-4,5,6,7-tetrahydro-1H-pyrazolo/4,3-c/pyridine]"
6,20.6,"CN1CCc2c(c(-c3ccc(F)cc3)nn2CCCc2ccccc2)C1 [Example 139, 3-(4-fluorophenyl)-1-(3-phenylpropyl)-5-methyl-4,5,6,7-tetrahydro-1H-pyrazolo/4,3-c/pyridine, hydrochloride]"
7,73.5,"CCCn1nc(-c2ccc(F)cc2)c2c1CCN(C)C2 [Example 140, 3-(4-fluorophenyl)-1-n.propyl-5-methyl-4,5,6,7-tetrahydro-1H-pyrazolo/4,3-c/pyridine, methanesulfonate]"
8,32.8,"CCCCn1nc(-c2ccc(F)cc2)c2c1CCN(C)C2 [Example 141, 3-(4-fluorophenyl)-1-n.butyl-5-methyl-4,5,6,7-tetrahydro-1H-pyrazolo/4,3-c/pyridine, methanesulfonate]"
9,36.3,"CN1CCc2c(c(-c3ccc(F)cc3)nn2Cc2ccccc2Cl)C1 [Example 142, 1-(2-chlorophenylmethyl)-3-(4-fluorophenyl)-5-methyl-4,5,6,7-tetrahydro-1H-pyrazolo/4,3-c/pyridine, methanesulfonate]"
10,8.14,"CC(c1ccccc1)n1nc(-c2ccc(F)cc2)c2c1CCN(C)C2 (centres unmarked) [Example 144, 3-(4-fluorophenyl)-4,5,6,7-tetrahydro-5-methyl-1-(1-phenylethyl)-1H-pyrazolo/4,3-c/pyridine, hydrochloride]"
11,49.4,"CN1CCc2c(c(-c3ccccc3)nn2Cc2ccccc2)C1 [Example 145, 4,5,6,7-tetrahydro-5-methyl-3-phenyl-1-phenylmethyl-1H-pyrazolo/4,3-c/pyridine, methanesulfonate]"
12,30.9,"CN1CCc2c(c(-c3ccc(Cl)cc3)nn2Cc2ccccc2)C1 [Example 146, 3-(4-chlorophenyl)-4,5,6,7-tetrahydro-5-methyl-1-phenylmethyl-1H-pyrazolo/4,3-c/pyridine, methanesulfonate]"
13,20.1,"Cc1ccc(-c2nn(Cc3ccccc3)c3c2CN(C)CC3)cc1 [Example 147, 4,5,6,7-tetrahydro-5-methyl-3-(4-methylphenyl)-1-phenylmethyl-1H-pyrazolo/4,3-c/pyridine, methanesulfonate]"
14,18.3,"CCCCCn1nc(-c2ccc(F)cc2)c2c1CCN(C)C2 [Example 150, 3-(4-fluorophenyl))-4,5,6,7-tetrahydro-5-methyl-1-n.pentyl-1H-pyrazolo/4,3-c/pyridine, methanesulfonate]"
15,15.2,"CCCCCCn1nc(-c2ccc(F)cc2)c2c1CCN(C)C2 [Example 151, 3-(4-fluorophenyl)-4,5,6,7-tetrahydro-1-n.hexyl-5-methyl-1H-pyrazolo/4,3-c/pyridine, methanesulfonate]"
16,97.6,"CC(C)N1CCc2c(c(-c3ccc(F)cc3)nn2Cc2ccccc2)C1 [Example 162, 3-(4-fluorophenyl)-5-(2-methylethyl)-1-phenylmethyl-4,5,6,7-tetrahydro-1H-pyrazolo/4,3-c/pyridine]"
17,42.4,"Fc1ccc(-c2nn(Cc3ccccc3)c3c2CN(C2CCCC2)CC3)cc1 [Example 163, 5-cyclopentyl-3-(4-fluorophenyl)-1-phenylmethyl-4,5,6,7-tetrahydro-1H-pyrazolo/4,3-c/pyridine, hydrochloride]"
